Experimental data from patent US20040166092A1, “Use of viral vectors and charged molecules for gene therapy” (priority 1999, published 2004).

Experiments:
CT-26 flank tumors = test: CT-26 flank tumor model; assay type: in vivo, mouse; conditions: acyclovir 2 mg/ml with dextran sulfate 100 μg/ml and 1×10^7 pfu NV1020
Procedure: Different modes of delivery were also examined to determine the efficacy of systemic delivery of HSV on tumor growth. Flank tumors were established in mice by subcutaneous injection of CT-26 cancer cells. The mice were then administered 1×10^7 pfu of NV1020 either intratumorally or systemically by tail vein. Tumor growth rates were then assessed by measuring the tumor volume biweekly (FIG. 8).
Mice were anesthetized using ketamine (70 mg/kg) and xylazine (10 mg/kg). CT-26 cells (5×10^4 cells resuspended in 100 μl of PBS) were injected subcutaneously into the right flank of each mouse, using a 26-gauge needle. The cells formed a tumor, which was allowed to grow to a size of approximately 100 to 150 mm^3. Injections of the desired therapy were then initiated. Tumor volumes were generally measured biweekly. The animals were sacrificed once the tumor volume reached 1500 mm^3.
Tail vein administration of the desired therapy was carried out using techniques commonly known in the art.

CT-26 cells = test: CT-26 morphology and cell growth in culture; assay type: cell-based; conditions: 72 hours
Procedure: To better understand the in vivo effects of dextran sulfate or dextran in combination with HSV, the effects of dextran sulfate on cell morphology and cell proliferation were evaluated in a cell culture model. CT-26 cells were treated with 100 μg/ml of dextran sulfate or were left untreated. After 48 hours, cell numbers and morphology were examined (FIG. 15). […] In the presence of dextran sulfate, CT-26 cells appeared more evenly spread across tissue culture dishes (panel B) as compared to the “clumped” appearance of CT-26 cells in the absence of dextran sulfate (panel A).
The effect of dextran sulfate, acyclovir, or a combination of both dextran and acyclovir were also examined for their effects on cell growth in vitro. Cultured CT-26 cells were administered dextran sulfate (100 μg/ml), acyclovir (2 mg/ml), both dextran sulfate and acyclovir, or were left untreated (control). CT-26 cells were counted at various time points following addition each formulation.

Nc1nc2c(ncn2COCCO)c(=O)[nH]1 [acyclovir]
tumor growth (CT-26 flank tumors): reduced tumor growth | growth of the cells (number of cells/ml) compared to untreated cells (CT-26 cells; acyclovir 2 mg/ml together with dextran sulfate 100 μg/ml): did not vary significantly | growth of the cells (number of cells/ml) compared to untreated cells (CT-26 cells; acyclovir 2 mg/ml): did not vary significantly
